The values below come from PubChem BioAssay (NCI).

Molecules are shown by their SMILES. Several values for one entry are separate records, joined by “and”; a condition that tells them apart may be missing. Equal entries are not always repeated.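 Each compound was tested at five concentrations against cells in 96-well plates for 48 hours. GI50 marks 50% less growth. TGI: total growth inhibition.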

The first assay deals with NCI/ADR-RES ovarian. Nature of the assay: NCI-60 cell line screen, 48 h.
For `Nc1cc(N)c2nc(-c3ccccc3)c(Oc3ccc(F)cc3)nc2c1`, the GI50 was 18.2 µM and the TGI amounted to 36.1 µM.

`COc1ccc(-c2cc(-c3ccc(Cl)cc3)c(C#N)c(=O)n2CCCCC(=O)Nc2ccccc2N)cc1`: the GI50 is 4.09 µM and the TGI was more than 100 µM.

As for `CN1CCCN(CCNc2nccc(-c3c(-c4cccc(O)c4)nc4sccn34)n2)S1(=O)=O`, the GI50 was 22.5 µM and 31.1 µM; the TGI was 75 µM and > 100 µM.

Regarding `CCOC(=O)c1c(NC(=O)c2ccc(C(C)C)cc2)sc2c(CN(C)C)c(O)ccc12`, the GI50 was 1.89 µM and the TGI was 4.52 µM.

Take `COc1ccc(C(=O)N2c3ccccc3Sc3ccccc32)c(F)c1`: the GI50 is 0.517 µM and the TGI was more than 100 µM.

Consider `CC1(C)N=C(N)N=C(N)N1c1ccc(CCc2ccccc2)c(Cl)c1`, for which the GI50 was 37 µM and the TGI was more than 100 µM.

In the case of `Cc1ccc(C(=O)Nc2ccc(CN3CCN(C)CC3)c(C(F)(F)F)c2)cc1C#Cc1cnc(N)c2ccc(F)cc12`, the GI50 was 0.436 µM and the TGI was 2.09 µM.

As to `CC1(C)CCC(C)(C)c2cc(C(=O)Nc3ccc(C(=O)O)cc3)ccc21`, the TGI stood at 47.3 µM.

In another assay the test system is KM12 colon. Put plainly: NCI-60 cell line screen, 48 h.
With `CSc1ccc(C2=Nn3c(nnc3-c3ccc(F)c(Cl)c3)SC2)cc1`, the GI50 is 7.78 µM and the TGI is 45.1 µM.

In the case of `CNC(=O)Nc1ccc(-c2nc(N3CCOCC3)nc3c2cnn3C2CCOCC2)cc1`, the GI50 was 0.384 µM and the TGI was more than 100 µM.

In the case of `NCCCCNCCCNC(=O)CNC(=O)CC(O)C(N)CCCC(NC(=O)C(CN)NC(=O)C(O)CNC(=O)CC(N)c1ccc(O)cc1)C(=O)O` (stereo not drawn), the TGI was more than 10 µM.

On to `N/C(=N\OC(=O)c1ccccc1)C(C(=O)NOC(=O)c1ccccc1)C1CCCCC1` (stereo not drawn), for which the GI50 is 11.4 µM and the TGI came out at 25.1 µM.

`CCOc1ccc(N=Nc2ccc3cc(/C(C)=N/NC(=O)/C(C#N)=C\c4ccc(N(CCC#N)CCC#N)cc4)c(=O)oc3c2)cc1` had a TGI of more than 10 µM.

Regarding `O=C(O)c1cc[c]([Hg][S]c2ncnc3nc[nH]c23)cc1`, the GI50 is 14.3 µM and the TGI is more than 50.1 µM.

The compound `CC(C)(C)OC(=O)NCC(C#N)CNC(=O)OC(C)(C)C` showed a TGI of more than 100 µM.

On to `O=C(Nc1ccc(OC(F)(F)F)cc1)c1sccc1NCc1ccnc2ccccc12`, for which the GI50 was 3.85 µM and the TGI is more than 56.9 µM.

`CCN(CC)c1ccc(NC(=S)NN(C)C)cc1` came in with a TGI of more than 10 µM.

Take `Nc1cc(N)c2nc(-c3ccccc3)c(Oc3ccc(F)cc3)nc2c1`: the GI50 was 14.5 µM and the TGI worked out at 40.3 µM.

As to `COc1ccc(-c2cc(-c3ccc(Cl)cc3)c(C#N)c(=O)n2CCCCC(=O)Nc2ccccc2N)cc1`, the GI50 was 5.17 µM and the TGI was more than 100 µM.

`CN1CCCN(CCNc2nccc(-c3c(-c4cccc(O)c4)nc4sccn34)n2)S1(=O)=O`: the GI50 is 11.7 µM and 9.82 µM; the TGI was 32.5 µM and 55.8 µM.

With `CCOC(=O)c1c(NC(=O)c2ccc(C(C)C)cc2)sc2c(CN(C)C)c(O)ccc12`, the GI50 is 1.83 µM and the TGI turned out to be 3.45 µM.

As for `COc1ccc(C(=O)N2c3ccccc3Sc3ccccc32)c(F)c1`, the GI50 was 0.489 µM and the TGI is more than 100 µM.

As for `CC1(C)N=C(N)N=C(N)N1c1ccc(CCc2ccccc2)c(Cl)c1`, the GI50 is 0.0994 µM and the TGI is 7.61 µM.

For the compound `Cc1ccc(C(=O)Nc2ccc(CN3CCN(C)CC3)c(C(F)(F)F)c2)cc1C#Cc1cnc(N)c2ccc(F)cc12`, the GI50 is 0.186 µM and the TGI amounted to 0.778 µM.

Compound `CC1(C)CCC(C)(C)c2cc(C(=O)Nc3ccc(C(=O)O)cc3)ccc21` yielded a TGI of more than 61.4 µM.

The next assay concerns MCF7 breast. Put plainly: NCI-60 cell line screen, 48 h.
As to `CSc1ccc(C2=Nn3c(nnc3-c3ccc(F)c(Cl)c3)SC2)cc1`, the GI50 is 7.54 µM and the TGI worked out at 25.8 µM.

Take `CNC(=O)Nc1ccc(-c2nc(N3CCOCC3)nc3c2cnn3C2CCOCC2)cc1`: the GI50 was 0.0784 µM and the TGI is more than 100 µM.

`NCCCCNCCCNC(=O)CNC(=O)CC(O)C(N)CCCC(NC(=O)C(CN)NC(=O)C(O)CNC(=O)CC(N)c1ccc(O)cc1)C(=O)O` (stereo not drawn): the TGI is more than 10 µM.

On to `N/C(=N\OC(=O)c1ccccc1)C(C(=O)NOC(=O)c1ccccc1)C1CCCCC1` (stereo not drawn), for which the GI50 is 8.22 µM and the TGI was found to be 23 µM.

`CCOc1ccc(N=Nc2ccc3cc(/C(C)=N/NC(=O)/C(C#N)=C\c4ccc(N(CCC#N)CCC#N)cc4)c(=O)oc3c2)cc1` yielded a TGI of more than 10 µM.

In the case of `O=C(O)c1cc[c]([Hg][S]c2ncnc3nc[nH]c23)cc1`, the GI50 was 2.6 µM and the TGI was more than 38.9 µM.

For the compound `CC(C)(C)OC(=O)NCC(C#N)CNC(=O)OC(C)(C)C`, the TGI is more than 100 µM.

For the compound `O=C(Nc1ccc(OC(F)(F)F)cc1)c1sccc1NCc1ccnc2ccccc12`, the GI50 is 4.19 µM and the TGI is 36 µM.

`CCN(CC)c1ccc(NC(=S)NN(C)C)cc1` registered a TGI of more than 10 µM.

As to `Nc1cc(N)c2nc(-c3ccccc3)c(Oc3ccc(F)cc3)nc2c1`, the GI50 was 20.3 µM and the TGI was more than 100 µM.

For `COc1ccc(-c2cc(-c3ccc(Cl)cc3)c(C#N)c(=O)n2CCCCC(=O)Nc2ccccc2N)cc1`, the GI50 was 4.03 µM and the TGI is more than 100 µM.

On to `CN1CCCN(CCNc2nccc(-c3c(-c4cccc(O)c4)nc4sccn34)n2)S1(=O)=O`, for which the GI50 is 22.1 µM and 18.8 µM; the TGI is 75 µM and > 100 µM.

In the case of `CCOC(=O)c1c(NC(=O)c2ccc(C(C)C)cc2)sc2c(CN(C)C)c(O)ccc12`, the GI50 is 1.75 µM and the TGI was determined as 3.77 µM.

Turning to `COc1ccc(C(=O)N2c3ccccc3Sc3ccccc32)c(F)c1`, the GI50 was 0.405 µM and the TGI is more than 100 µM.

For the compound `CC1(C)N=C(N)N=C(N)N1c1ccc(CCc2ccccc2)c(Cl)c1`, the GI50 was 0.058 µM and the TGI was 13 µM.

As for `Cc1ccc(C(=O)Nc2ccc(CN3CCN(C)CC3)c(C(F)(F)F)c2)cc1C#Cc1cnc(N)c2ccc(F)cc12`, the GI50 is 0.441 µM and the TGI worked out at 0.861 µM.

As to `CC1(C)CCC(C)(C)c2cc(C(=O)Nc3ccc(C(=O)O)cc3)ccc21`, the TGI is more than 100 µM.
